Molecular target: N-terminally His6-tagged recombinant kinase domain of the human c-Met (amino acids 960-1390) (Homo sapiens (Human), UniProt P08581)
Test: c-Met Receptor Tyrosine Kinase Homogeneous Time-Resolved Fluorescence Assay (Alternative Format)
Format: biochemical
Conditions: c-Met kinase inhibition, HTRF format, ATP 10 μM
From the text: c-Met Receptor Tyrosine Kinase Homogeneous Time-Resolved Fluorescence Assay (Alternative Format):
The N-terminally His6-tagged recombinant kinase domain of the human c-Met (amino acids 960-1390), expressed in insect cells (SF21) and purified by Ni-NTA affinity chromatography and consecutive size exclusion chromatography (Superdex 200), is used. Alternatively, commercially available c-Met (Millipore) can be used. As substrate for the kinase reaction, the biotinylated poly-Glu,Tyr (4:1) copolymer (#61GT0BLC, Cis Biointernational, Marcoule, France) is used.
For the assay, 50 nL of a 100-fold concentrated solution of the test compound in DMSO is pipetted into a black low-volume 384-well microtiter plate (Greiner Bio-One, Frickenhausen, Germany). […]
The resulting mixture is incubated for 1 h at 22° C. to allow the binding of the biotinylated phosphorylated peptide to the streptavidine-XLent and the PT66-Eu-chelate. Subsequently, the amount of phosphorylated substrate is evaluated by measurement of the resonance energy transfer from the PT66-Eu-chelate to the streptavidine-XLent. Therefore, the fluorescence emissions at 620 nm and 665 nm after excitation at 350 nm are measured in an HTRF reader, e.g. Rubystar (BMG Lab-technologies, Offenburg, Germany) or Viewlux (Perkin-Elmer). […]

N-terminally His6-tagged recombinant kinase domain of the human c-Met (amino acids 960-1390), sequence (P08581 960-1390): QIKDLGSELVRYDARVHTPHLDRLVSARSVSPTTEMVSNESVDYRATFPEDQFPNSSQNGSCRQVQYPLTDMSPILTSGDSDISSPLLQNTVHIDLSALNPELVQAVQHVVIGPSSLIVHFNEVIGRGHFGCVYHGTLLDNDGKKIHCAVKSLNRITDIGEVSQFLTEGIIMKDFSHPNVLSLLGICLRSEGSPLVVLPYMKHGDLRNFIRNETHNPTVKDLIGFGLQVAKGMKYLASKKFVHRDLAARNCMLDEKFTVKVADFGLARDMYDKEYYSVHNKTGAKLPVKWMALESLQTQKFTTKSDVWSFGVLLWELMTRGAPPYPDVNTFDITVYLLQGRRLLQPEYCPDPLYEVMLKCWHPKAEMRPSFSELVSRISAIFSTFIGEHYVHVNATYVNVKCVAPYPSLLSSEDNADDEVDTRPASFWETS

IC50: 1030 nM
Structure (SMILES): N#CC1=C(C(F)F)NC(C(F)F)=C(C#N)C1c1cc2c(N)nccc2o1 [Example 18]

Reference: US8604028B2, “Furopyridinyl-substituted 1,4-dihydropyridine derivatives and methods of use thereof” (Bayer Intellectual Property GmbH, priority 2009, dated 2013)
